Results from ChEMBL document CHEMBL1201862, “PubChem BioAssay data set” (2004).
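Growth conditions: 96-well plates. Treatment: test compound, 48 hours, 5 concentrations. Analysis: linear interpolation between bracketing concentrations; unreached endpoints set to highest concentration. Abbreviation: GI50, concentration required for 50% inhibition of growth.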 Activity calls are given as the source filed them. Cut-off read from the data, not from the text of the source: active = GI50 up to about 1.1 µM and inactive = higher.

Experiments:
Test in all cases: growth of human tumour cells (NCI), 48 h
A549 = system: A549
BT-549 = system: BT-549
CAKI-1 = system: CAKI-1
CCRF-CEM = system: CCRF-CEM
DU-145 = system: DU-145
EKVX = system: EKVX
HCC 2998 = system: HCC 2998
HCT-116 = system: HCT-116
HT-29 = system: HT-29
K562 = system: K562
KM12 = system: KM12
Malme-3M = system: Malme-3M
NCI-H23 = system: NCI-H23
NCI-H460 = system: NCI-H460
OVCAR-4 = system: OVCAR-4
RXF 393 = system: RXF 393
SF-268 = system: SF-268
SK-MEL-2 = system: SK-MEL-2
T47D = system: T47D
UACC-62 = system: UACC-62

Measured: GI50

O=C1OC(=O)C(=C\c2ccc3c(c2)OCO3)/C1=C/c1ccc2c(c1)OCO2
inactive: A549 37.9 µM | BT-549 > 100 µM | CAKI-1 > 100 µM | CCRF-CEM 25.9 µM | DU-145 > 100 µM | EKVX > 100 µM | HCC 2998 > 100 µM | HCT-116 > 100 µM | HT-29 > 100 µM | K562 > 79.8 µM | KM12 > 100 µM | Malme-3M > 100 µM | NCI-H23 > 80.9 µM | NCI-H460 > 100 µM | OVCAR-4 > 100 µM | RXF 393 > 89.1 µM | SF-268 > 100 µM | SK-MEL-2 > 100 µM | T47D > 100 µM | UACC-62 > 72.1 µM

CC(=O)OCCCOCn1c(Cc2ccccc2)c(C)c(=O)[nH]c1=O
inactive: A549 > 100 µM | BT-549 > 100 µM | CAKI-1 > 100 µM | CCRF-CEM > 100 µM | DU-145 > 100 µM | EKVX > 100 µM | HCC 2998 > 100 µM | HCT-116 > 100 µM | HT-29 > 100 µM | K562 > 100 µM | KM12 > 100 µM | Malme-3M > 100 µM | NCI-H23 > 100 µM | NCI-H460 > 100 µM | OVCAR-4 > 100 µM | RXF 393 > 100 µM | SF-268 > 100 µM | SK-MEL-2 > 100 µM | T47D > 100 µM | UACC-62 > 100 µM

Clc1ccc(/C(=C/c2ccccc2)Cn2ccnc2)cc1
inactive: A549 24.8 µM | BT-549 22.4 µM | CAKI-1 19.3 µM | CCRF-CEM 17.5 µM | DU-145 33 µM | EKVX 31.9 µM | HCC 2998 42.7 µM | HCT-116 9.08 µM | HT-29 29.6 µM | K562 5.42 µM | KM12 13.2 µM | Malme-3M 8.97 µM | NCI-H23 38.2 µM | NCI-H460 26.9 µM | OVCAR-4 22.6 µM | RXF 393 14.6 µM | SF-268 > 100 µM | SK-MEL-2 14.6 µM | T47D 12 µM | UACC-62 28 µM

Nc1ccc2c(=S)c3ccccc3[nH]c2c1
inactive: A549 23.3 µM | BT-549 48.4 µM | CAKI-1 9.23 µM | CCRF-CEM 18.8 µM | DU-145 > 72.1 µM | EKVX 36.5 µM | HCC 2998 53.5 µM | HCT-116 24.3 µM | HT-29 19.3 µM | K562 16.1 µM | KM12 44.4 µM | Malme-3M 40.3 µM | NCI-H23 22.9 µM | NCI-H460 27.4 µM | OVCAR-4 62.8 µM | RXF 393 39.6 µM | SF-268 65.9 µM | SK-MEL-2 51.9 µM | T47D 20.1 µM | UACC-62 31.7 µM
